Assay results from patent US8722729B2, “Unsaturated fatty acid monoesters and diesters on ascorbic acid and cosmetic uses thereof” (Pierre Fabre Dermo-Cosmetique, priority 2009, dated 2014).
Entries after “also recorded” stand apart in the source; their conditions may differ.

What was measured:
[1] = target: T1, hyaluronidase of bovine origin (BTH, Bovine Testis hyaluronidase) (Bos taurus, UniProt Q2YDK3); test: Assay of hyaluronidase activity (residual HA, HA-ELISA); assay type: biochemical
T1 sequence (Q2YDK3 1-553): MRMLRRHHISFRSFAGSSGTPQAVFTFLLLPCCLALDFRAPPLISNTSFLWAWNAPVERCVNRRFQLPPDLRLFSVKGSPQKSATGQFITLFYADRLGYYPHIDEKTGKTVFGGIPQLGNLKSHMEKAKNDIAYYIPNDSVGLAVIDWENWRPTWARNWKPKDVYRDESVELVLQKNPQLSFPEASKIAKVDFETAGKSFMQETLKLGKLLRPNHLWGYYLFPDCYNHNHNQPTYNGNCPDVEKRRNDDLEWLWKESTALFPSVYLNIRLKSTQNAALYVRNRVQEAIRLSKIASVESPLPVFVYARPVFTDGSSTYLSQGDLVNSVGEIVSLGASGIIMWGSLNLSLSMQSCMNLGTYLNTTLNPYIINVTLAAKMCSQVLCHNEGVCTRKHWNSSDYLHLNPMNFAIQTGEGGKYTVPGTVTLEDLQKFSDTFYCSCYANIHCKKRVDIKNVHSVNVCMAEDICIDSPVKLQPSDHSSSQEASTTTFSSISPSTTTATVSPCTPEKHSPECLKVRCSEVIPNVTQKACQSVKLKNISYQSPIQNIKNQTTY
Description: Hyaluronidase activity is measured by the assay of residual hyaluronic acid (HA). The substrate is fixed to a carrier then placed in the presence of an enzyme and a quantity of compound to be tested. The residual HA i.e. the non-hydrolyzed HA is assayed using a HA-Elisa detection system: Hyaluronan enzyme-linked immunosorbent assay (Echelon Biosciences®).
0.5 units of hyaluronidase of bovine origin (BTH, Bovine Testis hyaluronidase) were pre-incubated at 37° C. with the compound to be tested. This mixture was deposited on the HA fixed to the surface of a microplate well. The enzymatic reaction took place at pH 7.2n at 37° C. Washing was followed by a recognition step of residual HA by hyaluronectin (NH). The quantity of bonded NH was measured by ELISA using an anti-NH antibody conjugated with alkaline phosphatase. The p-nitrophenyl phosphate disodium salt (pnNpp) substrate of the phosphatase allows spectrometric detection at 405 nm. (Delpech B et al., Analytical Biochemistry 149, 555(565 (1985); Robert Stern et al. Analytical Biochemistry 251, 263-269 (1997)). OD intensity was correlated with the quantity of residual HA. The quantity of residual HA is directly linked to enzymatic activity. In the presence of an inhibitor, the larger the quantity of residual HA the more the sample is inhibiting. A percentage inhibition of hyaluronidase will be expressed.
Therefore the net enzymatic activities were calculated which represent the difference in mean gross activity without enzyme and the gross activity of the enzyme with or without the compound to be tested.
The percentage enzymatic inhibition related to the compound to be tested was calculated as follows: % inhibition=(Maximum net enzymatic activity)−Net enzymatic activity in the presence of the compound to be tested)/Maximum net enzymatic activity.
where the maximum net enzymatic activity represents the mean net enzymatic activity of 0.5 U.

B16-F10 cells = test: Assay of melanin in B16-F10 cells (colorimetric, α-MSH stimulated); assay type: cell-based, murine; conditions: for inhibition at 10 µM / inhibition at 20 µM / IC50 / inhibition at 50 µM / inhibition at 100 µM: Mus musculus; for inhibition at 10 µM / inhibition at 20 µM / inhibition at 50 µM / inhibition at 100 µM: B16-F10, 72 hours, read-out: Percentage inhibition of intracellular melanin; for IC50: B16-F10, α-MSH stimulated, read-out: IC50 intracellular melanin
Description: Similarly, to evidence the depigmenting activity of the compounds of general formula (I) according to the invention, the effect of these compounds was measured on the synthesis of melanin by colorimetric assay on a cell line of murine melanomas: line B16-F10.
This is a test to measure the synthesis of melanin by colorimetric assay on a cell line of murine melanomas: line B16-F10. This test allows the evaluation of the depigmenting property of active ingredients.
The B16-F10 cells were seeded onto 96-well plates in DMEM medium supplemented with FCS (fetal calf serum) and incubated 24 hours at 37° C., 5% CO2. The cells were then stimulated with α-MSH (to stimulate the synthesis of melanin, the stimulation observed was about 150%) and treated 72 hours with the active ingredients to be tested. Each concentration of active ingredient was tested at least in triplicate. Total melanin followed by intracellular melanin dissolved in lysis buffer were then assayed by absorbency reading at 405 nm. The total proteins were determined in the lysate and the results are expressed in mg melanin/mg proteins. The percentage activity was calculated as follows: […]
A negative value indicates an inhibition, whereas a positive value indicates induced synthesis of melanin.

[2] = system: Human dermal papilla cells; test: In vitro stimulation of the proliferation of dermal papilla cells (BrdU incorporation); assay type: cell-based
Description: Human dermal papilla cells (Promocell) were placed in culture and held in early passage culture in DMEM medium supplemented with 10% FCS. They were then seeded in a 96-well plate in DMEM medium supplemented with 10% FCS for 12 h. The culture medium was replaced by serum-free DMEM medium then by DMEM supplemented with 1% FCS and molecules 1, 2, 3 and 4 at the different tested concentrations After incubation for 60 h, cell proliferation was evaluated by incorporation of BrdU.
The diagrams in appended FIG. 1 show the increase in BrdU incorporation and the stimulated cellular proliferation of the cells in the presence of the different molecules (as a percent of the control).

human hair follicle [3] = test: Stimulation of the growth of the human hair follicle (Philpott culture); assay type: cell-based; conditions: 15 μM; for D4 % activity (hair growth stimulation compared with the control) / D4 % growth: 4 days' culture; for D8 % activity (hair growth stimulation compared with the control) / D8 % growth: 8 days' culture
Description: (§1) Biopsies of the occipital region of a human scalp were obtained from operative waste. The hair follicles were isolated by micro-dissection under binocular magnification. They were individually placed in culture following Philpott's technique (Philpott M P et al, J Cell Sci. 97:463-471, 1990). The hair follicles in anagen phase were incubated in 24-well culture dishes in the presence of William's medium supplemented with 10 μg/mL Insulin, 10 μg/mL Transferrin, 10 ng/mL Hydrocortisone, 1 mM Glutamax I, 100 U/mL Penicillin, 100 μg/mL Streptomycin, 250 ng/mL Amphotericin B and in the presence of molecules 3 or 4 for 11 days. The incubation medium was regularly renewed. The lengthening (in μm) of each hair follicle was measured at 4 and 8 days' culture in captured images of the hair follicles.
The diagrams in appended FIG. 2 show the effect of molecules 3 and 4 on the lengthening of hair follicles after incubation for 4 days and for 8 days.
The following table (Table 5) gives the growth percentages obtained for each treatment condition and the percentages for stimulated hair growth obtained with molecules 3 and 4 compared with the control.

human hair follicle [4] = test: Evaluation of hair bulb degeneration (apoptotic follicles at D11); assay type: cell-based
Description: as §1
The degeneration of the follicle when kinetics cease after 11 culture days, is evaluated by observation of morphological damage of the hair bulb (rounding, deformation). The percentage apoptosis is calculated by counting the number of apoptotic hair follicles relative to the total number of follicles

[5] = 0.5 U BTH, read-out: Enzymatic inhibition (mean as a percentage)

Compound | Effect on hyaluronidase [1] | inhibition at 10 µM [1, 5] | inhibition at 50 µM [1, 5] | Inhibition of the synthesis of intracellular melanin compared with vitamin C (B16-F10 cells) | inhibition at 10 µM (B16-F10 cells) | inhibition at 20 µM (B16-F10 cells) | IC50 (B16-F10 cells) | Proliferation of dermal papilla cells [2] | D4 % activity (hair growth stimulation compared with the control) (human hair follicle [3]) | D4 % growth (human hair follicle [3]) | D8 % activity (hair growth stimulation compared with the control) (human hair follicle [3]) | D8 % growth (human hair follicle [3]) | inhibition at 50 µM (B16-F10 cells) | inhibition at 100 µM (B16-F10 cells) | other results
CCCCCCCCCCCCCCCC(=O)OC[C@H](O)[C@H]1OC(=O)C(O)=C1O [6-ascorbyl palmitate, reference compound] | advantageously inhibits hyaluronidase, from 10 to 250 μM, with dose effect | 31% | 71% | – | – | – | – | – | – | – | – | – | – | – | inhibition at 25 µM ([1]; 25 μM, 0.5 U BTH, read-out: Enzymatic inhibition (mean as a percentage)): 57%; inhibition at 100 µM ([1]; 100 μM, 0.5 U BTH, read-out: Enzymatic inhibition (mean as a percentage)): 73%; inhibition at 200 µM ([1]; 200 μM, 0.5 U BTH, read-out: Enzymatic inhibition (mean as a percentage)): 79%; inhibition at 250 µM ([1]; 250 μM, 0.5 U BTH, read-out: Enzymatic inhibition (mean as a percentage)): 112%
CC/C=C\C/C=C\C/C=C\CCCCCCCC(=O)OC1=C(OC(=O)CCCCCCC/C=C\C/C=C\C/C=C\CC)C(C2COC(C)(C)O2)OC1=O (centres unmarked) [Molecule 2, dioctadeca-9,12,15-trienoate of (9Z,9′Z,12Z,12′Z,15Z,15′Z)-2-(2,2-dimethyl-1,3-dioxolan-4-yl)-5-oxo-2,5-dihydrofuran-3,4-diyl] | – | – | – | greater than that of vitamin C | 11% | 53% | 20 µM | induce proliferation of the cells but to a lesser extent than molecules 1 and 4 | – | – | – | – | – | – | –
CCCCC/C=C\C/C=C\C/C=C\CCCCC(=O)OC1=C(OC(=O)CCCC/C=C\C/C=C\C/C=C\CCCCC)C(C2COC(C)(C)O2)OC1=O (centres unmarked) [Molecule 3, dioctadeca-6,9,12-trienoate of (6Z,6′Z,9Z,9′Z,12Z,12′Z)-2-(2,2-dimethyl-1,3-dioxolan-4-yl)-5-oxo-2,5-dihydrofuran-3,4-diyl] | – | – | – | greater than that of vitamin C | 25% | 50% | 20 µM | induce proliferation of the cells but to a lesser extent than molecules 1 and 4 | 25% | 52% | 18% | 85% | – | – | –
CCCCCCCC/C=C\CCCCCCCC(=O)OC1=C(OC(=O)CCCCCCC/C=C\CCCCCCCC)C(C2COC(C)(C)O2)OC1=O (centres unmarked) [Molecule 4, dioleate of (Z)-2-(2,2-dimethyl-1,3-dioxolan-4-yl)-5-oxo-2,5-dihydrofuran-3,4-diyl] | strongly inhibit hyaluronidase; also recorded: equivalent to or more active than ascorbyl palmitate | 72% | 111% | greater than that of vitamin C | -16% | 6% | 53 µM | – | 19% | 51% | 12% | 84% | 44% | – | Proliferation stimulation of dermal papilla cells ([2]; 6.25 μM, 60 h): 113.9%; Number of apoptotic bulbs at D11 (Number of total follicles) (human hair follicle [4]; 15 μM, 11 days of incubation): 6 (12); % apoptosis (human hair follicle [4]; 15 μM, 11 days of incubation, control 75): 50%; Effect on hair degeneration (human hair follicle [4]; 11 days): marked limiting of hair degeneration
CCCCC/C=C\C/C=C\CCCCCCCC(=O)OC1=C(O)C(C2COC(C)(C)O2)OC1=O (centres unmarked) [Molecule 5, (9Z,12Z)-5-(2,2-dimethyl-1,3-dioxolan-4-yl)-4-hydroxy-2-oxo-2,5-dihydrofuran-3-yl octadeca-9,12-dienoate] | strongly inhibit hyaluronidase; also recorded: equivalent to or more active than ascorbyl palmitate | 31% | 76% | greater than that of vitamin C | 4% | 13% | 66 µM | – | – | – | – | – | 35% | 78% | –
CCCCCCCC/C=C\CCCCCCCC(=O)OC1=C(O)C(C2COC(C)(C)O2)OC1=O (centres unmarked) [Molecule 6, 5-(2,2-dimethyl-1,3-dioxolan-4-yl)-4-hydroxy-2-oxo-2,5-dihydrofuran-3-yl oleate] | strongly inhibit hyaluronidase; also recorded: equivalent to or more active than ascorbyl palmitate | 34% | 106% | greater than that of vitamin C | – | – | 105 µM | – | – | – | – | – | 7% | 49% | –
